Patent publication US11458138B2 (Novartis AG, priority 2017, dated 2022)

Assays:
LATS1 = LATS1 (Homo sapiens (Human), UniProt O95835); experiment: LATS1 biochemical assay (Table 1A, Compound Examples 1-290; method in the earlier part)
[1] = target: Human LATS2 kinase domain protein (Homo sapiens (Human), UniProt Q9NRM7); experiment: LATS2 Biochemical Caliper Assay (Compound Examples 1-290); conditions: 400 micromolar ATP
Experimental: Human LATS2 kinase domain protein was purchased from Carnabio (catalogue number 01-124), which harbors the catalytic domain of amino acids 553-1088, and was co-purified with human His-tagged MOBKL1A (NP_775-739). 5 microlitre of enzyme buffer, 100 nL of compounds and 5 microlitre of localising aid buffer were added into 384-well plates. […] The plates were incubated at 25° C. for 3 hours. 40 microlitre of stop buffer with 25 mM EDTA (NanoSyn) was added to each well to terminate the reaction. Localising aids and products were separated electrophoretically using the microfluidic-based Caliper Labchip 3000 Drug Discovery System (Caliper Life Sciences). Plates were read using blue laser excitation and green fluorescence detection and quantified by fluorescence intensity.

[2] = tested on: Phospho-YAP (SER127) in HaCaT cells; experiment: pYAP HTRF Assay (HaCaT Cells); assay type: cell-based, human; conditions: Homo sapiens, 2 hours
Summary of the method: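 HaCaT cells at 5500 cells/well were cultured 48 hours at 37° C, then treated with compound for 2 hours. Phospho-YAP (Ser127) was detected by HTRF after an overnight (20 hrs) room-temperature incubation, read as the 665 nm/620 nm ratio.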

[3] = tested on: YAP nuclear translocation in HaCaT cells; experiment: YAP Translocation Assay (HaCaT Cells); assay type: cell-based, human; conditions: Homo sapiens, 24 hours
Summary of the method: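 HaCaT cells (20,000/well) in DMEM + 10% FBS were plated overnight at 37° C, then exposed to compound for 24 h at 37° C. Cells were fixed with PFA, permeabilized with 0.1% Triton/1.5% BSA and imaged by high-content imaging.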

[4] = tested on: Phospho-YAP (Ser127) in JHH-5 cells; experiment: pYAP HTRF Assay (JHH-5 cells); assay type: cell-based; conditions: 2 hours
Summary of the method: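 JHH-5 cells (24000/well) cultured 24 h at 37 °C in William's E with 10% FBS, then exposed to compounds for 2 h at 37 °C. After lysis, pYAP d2/cryptate antibodies incubated 18 h at room temperature; HTRF ratio 665/620 nm ×10000.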

[5] = tested on: human corneal endothelial cells (CECs); experiment: Human corneal endothelial cell population expansion: fold cell expansion; assay type: cell-based; conditions: 10 micromolar compound, X-VIVO15 medium, 10 days, ratio of expanded to seeded cells
Experimental: (§1) Cells were cultured at 37° C. in 5% CO2.
(§2) For each compound, two sets of cultures were generated. A first set of cultures was fixed in 4% PFA for 20 minutes at room temperature after cells isolated from the cornea had attached to the cell culture dish (typically 24 h after cell plating). A second set of cultures was fixed in 4% PFA for 20 minutes at room temperature 10 days after the first one.
(§3) To measure cell density in all fixed cultures, the number of nuclei stained with Sytox Orange (ThermoFisher) were counted per surface area as follows: fixed cell cultures fixed were permeabilized in a solution of 0.3% Triton X-100 (Sigma-Aldrich). Cells were then labeled in a solution of 0.5 micromolar of Sytox Orange in PBS for 5 minutes at room temperature. Nuclei were counted under a Zeiss epifluorescence microscope. The expansion factor was then determined by calculating the ratio of the expanded population of cells to population of seeded cells.

[6] = tested on: human corneal endothelial cells (CECs); experiment: Human corneal endothelial cell population expansion: endothelial cell density in vitro; assay type: cell-based; conditions: 10 micromolar compound, X-VIVO15 medium, 10 days
Experimental: as §1, §2, §3

[7] = tested on: human limbal stem cells (LSCs); experiment: Human limbal stem cell population expansion: expansion factor; assay type: cell-based; conditions: 10 micromolar, XVIVO15 medium, two passages, ratio of expanded to seeded cells
Experimental: as §1
as §2, with “temperature” for “temperature 10 days”, “being cultured for two passages. Cells were passaged when they reached 90-100% confluence.” for “the first one.”
To evaluate cell expansion ratios, nuclei were counted using a Zeiss LSM 880 confocal microscope. The expansion factor was then determined by calculating the ratio of the expanded population of cells to population of seeded cells.

[8] = tested on: human limbal stem cells (LSCs); experiment: Human limbal stem cell population expansion: percentage of p63alpha-positive cells; assay type: cell-based; conditions: 10 micromolar, XVIVO15 medium
Experimental: as §1
as §2, with “temperature” for “temperature 10 days”, “being cultured for two passages. Cells were passaged when they reached 90-100% confluence.” for “the first one.”
In order to observe that the expanded cell population expressed p63alpha, this was measured by immunohistochemistry as follows. The fixed cell cultures were permeabilized and blocked in a blocking solution of 0.3% Triton X-100 (Sigma-Aldrich) and 3% donkey serum in PBS for 30 minutes. Cells were then labeled with primary antibody in the blocking solution for 12 hours at 4° C. Primary antibody used was p63alpha from Cell Signalling. Samples were washed in PBS three times and donkey-raised secondary antibody Alexa Fluor 488 (Molecular Probes) at 1:500 dilution were applied for 30 minutes at room temperature. Cell nuclei were then labeled in a solution of 0.5 micromolar of Sytox Orange (ThermoFisher) in PBS for 5 minutes at room temperature.
To evaluate the percentage of p63alpha-positive cells, the number of cells labeled by the anti-p63alpha antibody was counted and the total number of cells was determined by counting the number of nuclei stained by Sytox Orange. The proportion of p63alpha-positive cells was then determined by calculating the percentage of Sytox-orange-positive nuclei that also expressed p63alpha.

[9] = target: Human LATS1 kinase domain protein (Homo sapiens (Human), UniProt O95835); experiment: LATS1 Biochemical Caliper Assay (Compound Examples 291-335); conditions: Caliper EZ Reader
Experimental: The LATS1 biochemical Caliper assay was performed as following.
Human LATS1 kinase domain protein was purchased from Carnabio (catalogue number 01-123; lot 15CBS-0098D). Human LATS1, catalytic domain [589-1130(end) amino acids of accession number NP_004681.1] was co-expressed as N-terminal GST-fusion protein (90 kDa) with human His-tagged MOBKL1A [1-216(end) amino acids of accession number NP_775739.1] using baculovirus expression system. GST-LATS1 was purified by using glutathione sepharose chromatography. The substrate (Fluo-SGKtide; Peptide for LATS1; lot BS-41067) has the following sequence: 5-Fluo-Nva-[…]-amide (SEQ ID NO: 27) x TFA and was purchased from Biosyntan.
The reaction is performed in reaction buffer containing 50 mM Hepes pH 7,5; 0.02% Tween20; 0.02% BSA; 1 mM DTT; 10 uM Na3VO4 and 10 mM beta-Glycerolphosphat and fresh added 1 mM MgCl2 and qsp H2O.
The substrate solution (2× conc.) in Reaction Buffer contains 300 μM ATP and 4 μM Fluo-SGKtide.
The kinase solution (2× conc.) in Reaction Buffer contains 20 nM LATS1 kinase. 4.5 μL of 2× conc. Kinase solution, 50 nL of 1.8 mM compounds and 4.5 μL of substrate solution were added into 384-well plates black small volume from Greiner and incubated at 32° C. for 1 hour. 15 μL of stop buffer containing 100 mM Hepes pH 7,5; 5% DMSO; 0.1% Coating reagent; 10 mM EDTA and 0.02% Brij35 and qsp H2O to each well to terminate the reaction.
Substrates and products were electrophoretically separated using the microfluidic-based Caliper EZ Reader System (Caliper Life Sciences) using a 12 sipper chip (cat 760404). The separation takes place in Coating Buffer (idem Stop buffer) and containing 0.1% Coating reagent CR3 and 0.5% coating reagent CR8 (Perkin Elmer).
Plates were read using a LED with an excitation at 488 nm and a detection at 520 nm to 5 quantify the fluorescence intensity.

Sequence of Human LATS2 kinase domain protein (Q9NRM7 553-1088): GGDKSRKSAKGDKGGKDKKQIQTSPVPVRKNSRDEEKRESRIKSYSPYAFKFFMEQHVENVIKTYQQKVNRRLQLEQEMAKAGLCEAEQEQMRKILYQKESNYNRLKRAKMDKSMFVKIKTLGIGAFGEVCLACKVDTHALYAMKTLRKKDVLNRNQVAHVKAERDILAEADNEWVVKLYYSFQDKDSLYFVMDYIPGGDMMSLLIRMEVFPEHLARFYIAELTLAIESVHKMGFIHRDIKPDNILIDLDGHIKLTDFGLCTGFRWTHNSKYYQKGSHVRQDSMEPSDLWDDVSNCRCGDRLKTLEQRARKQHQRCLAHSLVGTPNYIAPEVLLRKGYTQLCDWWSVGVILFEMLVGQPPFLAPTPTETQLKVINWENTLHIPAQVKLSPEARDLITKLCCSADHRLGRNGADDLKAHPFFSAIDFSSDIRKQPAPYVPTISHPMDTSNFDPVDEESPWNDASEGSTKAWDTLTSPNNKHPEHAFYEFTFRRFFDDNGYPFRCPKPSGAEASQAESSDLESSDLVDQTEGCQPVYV
Sequence of Human LATS2 kinase domain protein (Q7L9L4 whole entry partner, the tested form may be a part): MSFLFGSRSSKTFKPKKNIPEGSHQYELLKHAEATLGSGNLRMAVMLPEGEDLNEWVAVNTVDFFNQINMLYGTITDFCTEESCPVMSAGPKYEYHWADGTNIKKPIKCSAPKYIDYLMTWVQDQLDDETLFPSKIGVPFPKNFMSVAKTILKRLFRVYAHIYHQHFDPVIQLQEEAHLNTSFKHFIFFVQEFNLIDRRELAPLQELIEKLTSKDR
Sequence of LATS1 (O95835 whole entry, looked up, the tested form may be a part): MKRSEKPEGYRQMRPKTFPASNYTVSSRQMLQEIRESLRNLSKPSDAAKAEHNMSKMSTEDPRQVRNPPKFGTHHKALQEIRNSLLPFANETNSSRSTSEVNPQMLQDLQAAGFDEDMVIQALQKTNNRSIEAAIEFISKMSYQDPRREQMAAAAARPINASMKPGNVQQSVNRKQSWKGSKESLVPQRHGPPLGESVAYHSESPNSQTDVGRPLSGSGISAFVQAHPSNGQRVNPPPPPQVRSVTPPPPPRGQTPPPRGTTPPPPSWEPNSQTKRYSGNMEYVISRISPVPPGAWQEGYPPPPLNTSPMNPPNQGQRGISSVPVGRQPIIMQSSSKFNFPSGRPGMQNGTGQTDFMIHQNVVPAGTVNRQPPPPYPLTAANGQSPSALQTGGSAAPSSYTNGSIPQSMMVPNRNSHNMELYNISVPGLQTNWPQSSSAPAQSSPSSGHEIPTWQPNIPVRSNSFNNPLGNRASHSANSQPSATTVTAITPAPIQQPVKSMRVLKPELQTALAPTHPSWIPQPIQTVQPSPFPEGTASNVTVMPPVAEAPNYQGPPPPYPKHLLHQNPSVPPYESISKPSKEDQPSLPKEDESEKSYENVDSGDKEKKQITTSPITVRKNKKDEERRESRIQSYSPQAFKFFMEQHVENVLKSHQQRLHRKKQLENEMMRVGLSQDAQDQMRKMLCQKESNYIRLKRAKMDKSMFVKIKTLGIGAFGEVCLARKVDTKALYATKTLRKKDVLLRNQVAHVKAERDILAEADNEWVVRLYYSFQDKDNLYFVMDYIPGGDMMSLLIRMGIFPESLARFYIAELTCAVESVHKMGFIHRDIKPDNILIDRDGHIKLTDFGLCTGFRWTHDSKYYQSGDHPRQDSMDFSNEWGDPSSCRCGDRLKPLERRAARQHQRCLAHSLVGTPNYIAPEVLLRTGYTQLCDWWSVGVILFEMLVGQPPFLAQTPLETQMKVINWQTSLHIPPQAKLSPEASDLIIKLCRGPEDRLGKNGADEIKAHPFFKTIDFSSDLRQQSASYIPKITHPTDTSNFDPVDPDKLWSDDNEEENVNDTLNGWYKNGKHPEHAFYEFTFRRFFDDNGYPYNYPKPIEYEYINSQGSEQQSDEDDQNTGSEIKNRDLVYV
Sequence of LATS1 (Q7L9L4 whole entry partner, looked up, the tested form may be a part): as the sequence (Q7L9L4 whole entry partner, the tested form may be a part) above
Sequence of Human LATS1 kinase domain protein (O95835 whole entry, looked up, the tested form may be a part): as the sequence (O95835 whole entry, looked up, the tested form may be a part) above
Sequence of Human LATS1 kinase domain protein (Q7L9L4 whole entry partner, looked up, the tested form may be a part): as the sequence (Q7L9L4 whole entry partner, the tested form may be a part) above

Row | SMILES | IC50 (LATS1) | IC50 [1] | IC50 [4] | IC50 [9] | IC50 [2] | EC50 [3] | Expansion factor (Fold Cell expansion) [5] | Endothelial Cell density in vitro [6] | Expansion factor [7] | Percentage of p63a-positive cells [8]
1 | CC(C)(COCCO)Nc1nc(-c2ccncc2)nc2cnccc12 [Example 11, 2-(2-methyl-2-{[2-(pyridin-4-yl)pyrido[3,4-d]pyrimidin-4-yl]amino}propoxy)ethan-1-ol] | 3 nM | 12 nM |  |  | 646 nM | 1430 nM |  |  |  | 
2 | CC1CCCC1Nc1nc(-c2ccncc2)nc2cnccc12 (stereo not drawn) [Example 17, N-(2-methylcyclopentyl)-2-(pyridin-4-yl)pyrido[3,4-d]pyrimidin-4-amine] | 5 nM |  |  |  | 606 nM | 2630 nM | 187 | 1628 cells/mm^2 | 976 | 86%
3 | O[C@H]1CCC[C@@H]1Nc1nc(-c2ccncc2)nc2cnccc12 [Example 33, (1S,2S)-2-{[2-(pyridin-4-yl)pyrido[3,4-d]pyrimidin-4-yl]amino}cyclopentan-1-ol] | 71 nM |  |  |  | > 20000 nM | > 20000 nM | 12 | 25 cells/mm^2 | 39 | 6%
4 | Cn1nccc1-c1nc(NC2(C)CCC2)c2ccncc2n1 [Example 186, 2-(1-methyl-1H-pyrazol-5-yl)-N-(1-methylcyclobutyl)pyrido[3,4-d]pyrimidin-4-amine] | 9 nM | 50 nM |  |  |  | > 20000 nM |  |  |  | 
5 | CC1(Nc2cc(-c3ccncc3)cc3cnccc23)CC1 [Example 289, N-(1-methylcyclopropyl)-7-(pyridin-4-yl)isoquinolin-5-amine] | 4 nM |  |  |  | 34100 nM | 6500 nM | 84 | 1421 cells/mm^2 | 681 | 80%
6 | FC(F)(F)[C@H]1CN(c2nc(-c3ccncc3)nc3cnccc23)CCN1 [Example 319, (R)-2-(pyridin-4-yl)-4-(3-(trifluoromethyl)piperazin-1-yl)pyrido[3,4-d]pyrimidine] |  |  | > 10000 nM | 58.1 nM |  |  |  |  |  | 

Further lines, with some results ahead:

Row | IC50 (LATS1) | IC50 [1] | IC50 [4] | IC50 [9] | SMILES | IC50 [2] | EC50 [3] | Expansion factor (Fold Cell expansion) [5] | Endothelial Cell density in vitro [6] | Expansion factor [7] | Percentage of p63a-positive cells [8]
7 | 1 nM | 1 nM | > 10000 nM |  | CC(Nc1nc(-c2ccncc2)nc2cnccc12)C(F)(F)F (stereo not drawn) [Example 4, 2-(pyridin-4-yl)-N-(1,1,1-trifluoropropan-2-yl)pyrido[3,4-d]pyrimidin-4-amine] | 1150 nM | 2530 nM |  |  |  | 
8 | 2 nM |  | 2300 nM |  | CC(C)N(C)c1nc(-c2ccncc2)nc2cnccc12 [Example 5, N-methyl-N-(propan-2-yl)-2-(pyridin-4-yl)pyrido[3,4-d]pyrimidin-4-amine] | 2190 nM | 2480 nM | 408 | 3911 cells/mm^2 |  | 
9 | 1 nM | 4 nM | 1100 nM |  | CC(C)(C)Nc1nc(-c2ccncc2)nc2cnccc12 [Example 59, N-tert-butyl-2-(pyridin-4-yl)pyrido[3,4-d]pyrimidin-4-amine] | 19 nM | 341 nM |  |  |  | 
10 | 5 nM | 30 nM | 3300 nM |  | OCC1(Nc2nc(-c3ccncc3)nc3cnccc23)CCC1 [Example 101, (1-{[2-(pyridin-4-yl)pyrido[3,4-d]pyrimidin-4-yl]amino}cyclobutyl)methanol] | 5400 nM | > 20000 nM |  |  |  | 
11 |  |  | 7700 nM | 2.4 nM | CC(C)(N)CNc1nc(-c2ccncc2)nc2cnccc12 [Example 312, 2-methyl-N^1-(2-(pyridin-4-yl)pyrido[3,4-d]pyrimidin-4-yl)propane-1,2-diamine] |  |  |  |  |  | 
12 |  |  | 7800 nM | 3.8 nM | NCCNc1nc(-c2ccncc2)nc2cnccc12 [Example 313, N-(2-(pyridin-4-yl)pyrido[3,4-d]pyrimidin-4-yl)ethane-1,2-diamine] |  |  |  |  |  | 
13 |  |  | 5700 nM | 5 nM | CN(CCC(C)(C)N)c1nc(-c2ccncc2)nc2cnccc12 [Example 315, N^1,3-dimethyl-N^1-(2-(pyridin-4-yl)pyrido[3,4-d]pyrimidin-4-yl)butane-1,3-diamine] |  |  |  |  |  | 
14 |  |  | 3200 nM | 0.8 nM | CC(C)(CN)CNc1nc(-c2ccncc2)nc2cnccc12 [Example 317, 2,2-dimethyl-N^1-(2-(pyridin-4-yl)pyrido[3,4-d]pyrimidin-4-yl)propane-1,3-diamine] |  |  |  |  |  | 
15 |  |  | 3100 nM | 1.8 nM | CC(C)(CC(N)=O)Nc1nc(-c2ccncc2)nc2cnccc12 [Example 318, 3-methyl-3-((2-(pyridin-4-yl)pyrido[3,4-d]pyrimidin-4-yl)amino)butanamide] |  |  |  |  |  | 
16 |  |  | 1000 nM | 0.7 nM | CC(C)(N)C(C)(C)Nc1nc(-c2ccncc2)nc2cnccc12 [Example 320, 2,3-dimethyl-N^2-(2-(pyridin-4-yl)pyrido[3,4-d]pyrimidin-4-yl)butane-2,3-diamine] |  |  |  |  |  | 
